Values joined by “and” are separate entries in the source; they are usually repeats but may differ in a detail not shown here. Equal values may be shown once. “Also recorded” adds a separate entry of the source.
Test system: SJSA-1 tumor xenografts
Test: subcutaneous SJSA-1 xenograft with parenteral etoposide
Format: in vivo, CD-1 nude mice
Experimental: Combining systemic administration of etoposide + NU5455 in vivo
SJSA1 cells (1 x 10^7 cells/mouse in 50 µl, 50% v/v Matrigel) were implanted s.c. into the right flank of female CD-1 nude mice. When tumor volumes reached 103-121 mm3 mice were treated daily, for five consecutive days, with NU5455 (30 mg/kg or 100 mg/kg once -daily p.o. in NMP:Encapsin (30% aq):PEG4000 (1:6:3 v/v/v) ) or vehicle, followed immediately with etoposide (5 mg/kg i.p. in saline). Body weight and tumor volume measurements were taken daily during treatment and three times per week post -treatment. Tumor volume was calculated from two-dimensional electronic caliper measurements (Mitutoyo) using the equation ‘width2 x length/2’, where width was the smaller side, and length the longer dimension of the tumor. Mice were humanely killed when; (i) an adverse effect on clinical condition was evident, (ii) tumor bilateral measurements reached 10 mm x 10 mm, (iii) a tumor measurement in any di mension reached 15 mm, or (iv) at study termination. […]

With `CN(C(=O)CN1CCOCC1)c1ccc2sc3c(-c4cccc5c(=O)cc(N6CC7CCC(C6)O7)oc45)cccc3c2c1` [NU5455] the “enhancement of etoposide antitumor effect” value (NU5455 30 mg/kg oral + etoposide 5 mg/kg i.p., 5 consecutive days) was “does not significantly enhance; also recorded: did not enhance it significantly”, the body weight (NU5455 100 mg/kg oral + etoposide 5 mg/kg i.p.) was “increased weight loss by day 8” and the “enhancement of etoposide antitumor activity” value (NU5455 100 mg/kg oral + etoposide 5 mg/kg i.p., 5 sequential days) was “potentiated significantly”. The “animals requiring humane intervention (>15% body-weight loss)” value (day 8, NU5455 100 mg/kg oral + etoposide 5 mg/kg i.p.) was 2 of 10 and 2 and the “tolerability, NU5455 alone” value (greater dose (100 mg/kg oral)) was “well tolerated by itself”.

Source: publication PMC6934184, “Selective DNA-PKcs inhibition extends the therapeutic index of localized radiotherapy and chemotherapy” (The Journal of Clinical Investigation, 2019)
